Experimental data published in publication PMC6247689, “Determination of the volatile and polyphenol constituents and the antimicrobial, antioxidant, and tyrosinase inhibitory activities of the bioactive compounds from the by-product of Rosa rugosa Thunb. var. plena Regal tea” (BMC Complementary and Alternative Medicine, 2018).
≈ marks a conversion by molar mass, not a printed value. Like-named read-outs stand apart in the source and are kept apart here.

Legend:
[1] = ABTS radical scavenging; conditions: 30 °C, 30 min; positive control = Trolox
Protocol: The ABTS assay of RFCS was performed according to a modified version of a previously reported method. Briefly, the stock solutions were generated by mixing equal quantities of 7.4 mM ABTS^●+ solution and 2.6 mM potassium persulfate solution, and the mixture was incubated at room temperature for 12 h in the dark. Then, the solution was equilibrated with 1 mL of ABTS^●+ solution with 50% ethanol serving as a positive control. The absorbance of the solution at 734 nm was 1.17 ± 0.02 units. […] The mixture was mixed vigorously and incubated at 30 °C for 30 min. The absorbance was then measured at […] using the spectrophotometer. […] Inhibition%=Absorbance of blank-Absorbance of sample/Absorbance of blank×100

[2] = DPPH radical scavenging activity; conditions: 30 min in the dark, 517 nm; positive control = ascorbic acid
Protocol: The antioxidant activity of RFCS and the standards were evaluated by DPPH radical scavenging activity using a slightly modified version of a previously reported method. […] Aliquots (100 μL) of the supernatants were transferred into a 96-well microplate, and the absorbance of each was recorded at 517 nm using a Spectramax Plus384 UV-Vis spectrophotometer (Molecular Devices, Sunnyvale, California, USA). […] The IC50 values, which represent the concentrations of rose samples and standard substance at which 50% of the DPPH radical was inhibited, were determined. The tests were performed in triplicate, and the percentage of DPPH scavenging was calculated using the following equation. Inhibition%=H0-H/H0×100 H:Absorbance of RFCS and the standards;H0:Absorbance of the blank

[3] = tested on: candida albicans (ATCC 10231); test: MIC and MFC, broth microdilution; type: cell-based; conditions: Candida albicans, ATCC10231, C. albicans; for MIC: 37 °C, 24 h, read-out: MIC; for MFC: read-out: MFC
Protocol: (§1) The antimicrobial activity was measured by the method described by Xue. All standard strains were obtained from the Guangdong Microbiology Culture Center (Guangzhou, China). Listeria ivanovii (ATCC 19119) was cultured in BHI, Salmonella enteritidis enteritidis (ATCC 14028) Staphylococcus aureus (ATCC 25923) and Escherichia coli (ATCC 25922) were cultured in nutrient agar (NA) for 24 h and at 37 °C. candida albicans (ATCC 10231) was cultured in PHB at 37 °C for 24 h. Propionibacterium acnes (ATCC 6919) and Fusobacterium nucleatum (ATCC 10953) were cultured in CDC agar at 37 °C for 48 h in a YQX-II anaerobic incubator (Shanghai, China). The final cell counts in l mL of broth were approximately 10^6 colony-forming units (CFU/mL). A 10 mg/mL solution of miconazole nitrate and hydrochloride tetracycline in water was used as a positive control against fungi and bacteria, respectly.
(§2) The MIC and MBC or MFC values were determined as described previously by Xue. Briefly, 100 μL dilutions (approximately 100,000 CFU/mL) of Staphylococcus aureus, Escherichia coli, Salmonella enteritidis enteritidis, Fusobacterium nucleatum, and Candida albicans in nutrient broth and Listeria ivanovii and Propionibacterium acnes in GMA broth were inoculated into microtiter plates. Then, 100 μL aliquots of the solutions of the test compound were added after a two-fold serial dilution with nutrient broth (from 2 mg/mL to 3 μg/mL). Broths with 5% (v/v) DMSO were used as controls. The petri dishes were incubated at 37 °C for 24 h with the exception of Propionibacterium acnes and Fusobacterium nucleatum, which were incubated at 37 °C for 48 h. The MIC was recorded as the lowest concentration of sample showing no detectable growth. To determine the MBC or MFC values for no bacterial or fungus growth, 10 μL of sub-inhibitory concentrations of the test compounds were incubated on CDC or GMA agar plates for 24 or 48 h. Every determination was carried out in triplicate.

[4] = target: mushroom tyrosinase; test: Tyrosinase inhibitory activity (spectrophotometric, DOPA substrate); type: biochemical; conditions: pH 6.8, 37 °C, 15 min, positive control = kojic acid
Protocol: The reaction mixture was vortexed and maintained at 37 °C for 15 min, and then the absorption maximum of dopachrome (set at 479 nm) was measured using a microplate reader (Molecular Devices, Sunnyvale, California, USA). The tests were performed in triplicate, and the value of tyrosinase inhibition activity was calculated as described above.

[5] = tested on: Staphylococcus aureus (ATCC 25923); test: MIC and MBC, broth microdilution; type: cell-based; conditions: Staphylococcus aureus, ATCC25923, S. aureus; for MIC: 37 °C, 24 h, read-out: MIC; for MBC: read-out: MBC
Protocol: as §1, §2

[6] = tested on: Listeria ivanovii (ATCC 19119); test: MIC and MBC, broth microdilution; type: cell-based; conditions: L. ivanovii; for MIC: 37 °C, 24 h
Protocol: as §1, §2

[7] = tested on: Escherichia coli (ATCC 25922); test: MIC and MBC, broth microdilution; type: cell-based; conditions: Escherichia coli, ATCC25922, E. coli; for MIC: 37 °C, 24 h, read-out: MIC; for MBC: read-out: MBC
Protocol: as §1, §2

[8] = tested on: Salmonella enteritidis enteritidis (ATCC 14028); test: MIC and MBC, broth microdilution; type: cell-based; conditions: S. enteritidis enteritidis; for MIC: 37 °C, 24 h; for MBC: read-out: MBC
Protocol: as §1, §2

[9] = tested on: Fusobacterium nucleatum (ATCC 10953); test: MIC and MBC, broth microdilution; type: cell-based; conditions: F. nucleatum; for MIC: anaerobic, 37 °C, 48 h
Protocol: as §1, §2

[10] = tested on: Propionibacterium acnes (ATCC 6919); test: MIC and MBC, broth microdilution; type: cell-based; conditions: P. acnes; for MIC: anaerobic, 37 °C, 48 h; for MBC: read-out: MBC
Protocol: as §1, §2

[11] = Listeria ivanovii, ATCC19119, read-out: MIC
[12] = Listeria ivanovii, ATCC19119, read-out: MBC
[13] = Salmonella enterica, read-out: MIC
[14] = Fusobacterium nucleatum, ATCC10953, read-out: MIC
[15] = Fusobacterium nucleatum, ATCC10953, read-out: MBC
[16] = Cutibacterium acnes, ATCC6919, read-out: MIC

Row | Structure (SMILES) | ABTS radical scavenging activity IC50 [1] | DPPH radical scavenging activity IC50 [2] | MIC [3] | Tyrosinase inhibition IC50 [4] | MIC [5] | MIC [6, 11] | MIC [7] | MIC [8, 13] | MIC [9, 14] | MIC [10, 16] | MFC [3] | MBC [5] | MBC [6, 12] | MBC [7] | MBC ([8]; Salmonella enterica) | MBC [9, 15] | MBC ([10]; Cutibacterium acnes, ATCC6919) | further results
1 | CC(C)=CCCC(C)CCO (stereo not shown) [Citronellol] | > 10,000 a μg/mL | > 10000a μg/mL | 250 µg/mL (≈ 1600 µM) | 825 ± 31 a μg/mL | 125 µg/mL (≈ 800 µM) | 250 µg/mL (≈ 1600 µM) | 250 µg/mL (≈ 1600 µM) | 250 µg/mL (≈ 1600 µM) | 250 µg/mL (≈ 1600 µM) | 125 µg/mL (≈ 800 µM) | 500 µg/mL (≈ 3200 µM) | 500 µg/mL (≈ 3200 µM) | 500 µg/mL (≈ 3200 µM) | 500 µg/mL (≈ 3200 µM) | 1000 µg/mL (≈ 6400 µM) | 1000 µg/mL (≈ 6400 µM) | 500 µg/mL (≈ 3200 µM) | –
2 | CN(C)[C@@H]1C(=O)C(C(N)=O)=C(O)[C@@]2(O)C(=O)C3=C(O)c4c(O)cccc4[C@@](C)(O)[C@H]3C[C@@H]12.Cl [Hydrochloride tetracycline] | – | – | – | – | – | – | – | – | – | – | – | – | – | – | – | – | – | MBC [6]: < 0.1 µg/mL; MIC [6]: < 0.1 µg/mL; MIC [8]: 8 µg/mL; MBC [9]: 2 µg/mL; MIC [9]: 2 µg/mL; MIC [10]: 8 µg/mL
3 | C=CC(C)(O)CCC=C(C)C (stereo not shown) [Linalool] | > 10,000 a μg/mL | > 10,000 a μg/mL | 250 µg/mL (≈ 1620 µM) | 730 ± 44 a μg/mL | 250 µg/mL (≈ 1620 µM) | 500 µg/mL (≈ 3240 µM) | 250 µg/mL (≈ 1620 µM) | 500 µg/mL (≈ 3240 µM) | 250 µg/mL (≈ 1620 µM) | 250 µg/mL (≈ 1620 µM) | 1000 µg/mL (≈ 6480 µM) | 1000 µg/mL (≈ 6480 µM) | > 1000 µg/mL | 1000 µg/mL (≈ 6480 µM) | > 1000 µg/mL | 1000 µg/mL (≈ 6480 µM) | 1000 µg/mL (≈ 6480 µM) | –

More lines, in order of falling MIC [5], values ahead:

Row | ABTS radical scavenging activity IC50 [1] | DPPH radical scavenging activity IC50 [2] | MIC [3] | Tyrosinase inhibition IC50 [4] | MIC [5] | MIC [6, 11] | MIC [7] | MIC [8, 13] | MIC [9, 14] | MIC [10, 16] | Structure (SMILES) | MFC [3] | MBC [5] | MBC [6, 12] | MBC [7] | MBC ([8]; Salmonella enterica) | MBC [9, 15] | MBC ([10]; Cutibacterium acnes, ATCC6919) | further results
4 | 0.436 ± 0.026 c μg/mL | 0.507 ± 0.015 c μg/mL | – | 0.613 ± 0.016 µg/mL | 500 µg/mL (≈ 1750 µM) | 500 µg/mL (≈ 1750 µM) | – | – | 125 µg/mL (≈ 437 µM) | – | O=c1cc(-c2ccc(O)c(O)c2)oc2cc(O)cc(O)c12 [Luteolin] | 500 µg/mL (≈ 1750 µM) | > 1000 µg/mL | 1000 µg/mL (≈ 3490 µM) | 1000 µg/mL (≈ 3490 µM) | – | 500 µg/mL (≈ 1750 µM) | 500 µg/mL (≈ 1750 µM) | –
5 | 0.526 ± 0.014 c μg/mL | 0.695 ± 0.021 c μg/mL | 250 µg/mL (≈ 538 µM) | 0.762 ± 0.018 µg/mL | 250 µg/mL (≈ 538 µM) | 250 µg/mL (≈ 538 µM) | 250 µg/mL (≈ 538 µM) | 250 µg/mL (≈ 538 µM) | 250 µg/mL (≈ 538 µM) | 250 µg/mL (≈ 538 µM) | O=c1c(O[C@@H]2O[C@H](CO)[C@H](O)[C@H](O)[C@H]2O)c(-c2ccc(O)c(O)c2)oc2cc(O)cc(O)c12 [Hyperoside] | 1000 µg/mL (≈ 2150 µM) | 1000 µg/mL (≈ 2150 µM) | 500 µg/mL (≈ 1080 µM) | 1000 µg/mL (≈ 2150 µM) | 500 µg/mL (≈ 1080 µM) | 500 µg/mL (≈ 1080 µM) | 1000 µg/mL (≈ 2150 µM) | Tyrosinase inhibition IC50 ([4]; listed as hyperoside): < 1 µg/mL
